Source: patent US20240279600A1, “COMPOSITIONS AND METHODS FOR PROMOTING IN VITRO MATURATION OF CELLS” (MEMORIAL SLOAN-KETTERING CANCER CENTER, priority 2021, published 2024)
“Also recorded” adds a separate entry of the source.

Key:
Format in all cases: cell-based, human
[1] = tested on: hPSC-derived cortical neurons; assay: High-content maturity assay / chemical screen in hPSC-derived cortical neurons; conditions: for dose-response validation, mean of 4 maturity parameters normalized to DMSO (mean maturation score): 30 nM-10,000 nM, nuclear size and roundness, neurite length, KCl-induced FOS/EGR1+ cells; for number of cells (cell viability / neuron survival): with respect to DMSO, treatment days 7-14, day 21
Text: The phenotypic complexity of neurons makes single-readout assays unsuitable to fully capture maturation stages. Therefore, a multi-phenotype approach (via high-content screening, HCS) (Boutros M., Heigwer F. & Laufer C. Cell vol. 163 1314-1325 (2015)) was used to design an assay that simultaneously monitors distinct features of neuronal maturation (FIG. 1A). Dendritic outgrowth is a widely used parameter of neuron maturity (Wu, G. Y. et al., J. Neurosci. 19, 4472-4483 (1999)) and can be monitored through automated tracing of microtubule-associated protein 2 (MAP2) immunostaining (FIGS. 1B and 1C). Changes in nuclear size and morphology are also characteristic of neuron development and maturation (Ito K. & Takizawa T., Frontiers in Genetics vol. 9 (2018)) and can be tracked via DAPI counterstaining (FIGS. 1B and 1C). As an indirect measurement of neuronal function and excitability, the nuclear expression of immediate early gene (IEG) products FOS and EGR1 were quantified following 2 hours of potassium chloride (KCl) stimulation (FIGS. 1B and 1D). IEGs are defined by their rapid induction in the absence of de-novo protein synthesis by stimuli that include sustained membrane depolarization in neurons (Sheng M. & Greenberg M. E., Neuron vol. 4 477-485 (1990)). In contrast to more traditional measures of neuronal activity such as calcium imaging and electrophysiology, IEG immunoreactivity is readily scalable as a readout for thousands of treatment conditions. However, IEGs can be triggered by stimuli other than neuronal activity including growth factor signaling (Greenberg M. E. & Ziff E. B., Nature 311, 433-438 (1984)) and cellular stress responses (Murai J. et al., Cell Rep. 30, 4137-4151.e6 (2020)). Therefore, to avoid direct activation of IEGs, transient compound treatment (day 7-14) was used and all measurements were performed after rinsing of compounds followed by culture in compound-free medium for an additional 7 days (day 14-21) prior to analysis (FIG. 1A). Furthermore, IEGs under both basal and KCl-stimulated conditions were recorded to specifically determine the depolarization-induced signal by subtracting baseline from KCl-induced responses. Measuring maturation readouts only after compound withdrawal enabled the identification of compounds that trigger a long-lasting “memory” of a maturation stimulus even after compound removal.
The present maturity assay was then applied to screen a library of 2688 bioactive compounds in hPSC-derived cortical neurons (FIG. 6A). The library was applied at 5 μM and standard scores (z-scores) of duplicate screen runs were averaged for analysis. Viability was determined by quantifying intact nuclei, and 325 toxic compounds with a z-score below −2 were excluded from further analysis (FIG. 6B). For HCS hit selection, principal component analysis (PCA) was applied to 6 maturity z-scores to identify patterns of distribution among compounds, avoiding single threshold hit discrimination (Singh S. et al., Journal of Biomolecular Screening vol. 19 640-650 (2014)) (FIG. 1E, left panel). The 6 parameters were: nuclear size and roundness, total neurite length and branching (number of segments per cell), and fractions of KCl-induced FOS+ and EGR1+ cells. Three phenotypic clusters of compounds were identified by PCA: maturation enhancers (hits); maturation suppressors, consisting mostly of inhibitors of the PI3K/AKT/mTOR axis; and inducers of non-neuronal contaminant proliferation, which were highly enriched in TGF-β signaling inhibitors as well as inhibitors of rho-associated protein kinase (ROCK) and other signaling pathways (FIG. 1E, right panel).
A bioactive compound library containing 2688 compounds was used for screening at a concentration of 5 μM (Selleck Bioactive Library, Selleck Chemicals). 192 DMSO wells contained within the library were used as negative controls. […]

[2] = tested on: hPSC-derived cortical neurons from treated NPC; assay: Ca2+ imaging (GCaMP6m) after transient inhibition of chromatin regulators in NPC; conditions: NPC treated d12 to d20, imaging d40, versus DMSO
[3] = tested on: hPSC-derived cortical neurons from treated NPC; assay: Western blot for maturation markers after transient inhibition of chromatin regulators in NPC; conditions: NPC treated d12 to d20, neurons analysed d35, versus DMSO

Structure (SMILES)	dose-response validation, mean of 4 maturity parameters normalized to DMSO (mean maturation score) [1]	number of cells (cell viability / neuron survival) [1]	amplitude of individual Ca2+ spikes [2]	frequency of individual Ca2+ spikes [2]	synchronicity of the neuronal network (synchronous firing rate) [2]	expression of the maturation markers Nefh and Stx1a [3]
N[C@H]1C[C@@H]1c1ccc(-c2cccc(O)c2)cc1 [OG-L002]	confirmed hits					
O=C(O)c1ccc(CN2CCC(CN[C@@H]3C[C@H]3c3ccccc3)CC2)cc1 [GSK2879552, 4-[[4-[[[(1R,2S)-2-phenylcyclopropyl]amino]methyl]piperidin-1-yl]methyl]benzoic acid]	stronger combined effect than OG-L002; also recorded: confirmed hits	did not significantly affect neuron survival				
CCCc1cc(C)[nH]c(=O)c1CNC(=O)c1cc(-c2ccnc(N3CCN(C)CC3)c2)cc2c1cnn2C(C)C [GSK343, N-[(6-methyl-2-oxo-4-propyl-1H-pyridin-3-yl)methyl]-6-[2-(4-methylpiperazin-1-yl)pyridin-4-yl]-1-propan-2-ylindazole-4-carboxamide]			marked and highly significant increase	marked and highly significant increase	marked and highly significant increase	robust increased expression
CC(C)N(C[C@H]1O[C@@H](n2cnc3c(N)ncnc32)[C@H](O)[C@@H]1O)[C@H]1C[C@@H](CCc2nc3cc(C(C)(C)C)ccc3[nH]2)C1 [EPZ-5676, (2R,3R,4S,5R)-2-(6-aminopurin-9-yl)-5-[[[3-[2-(6-tert-butyl-1H-benzimidazol-2-yl)ethyl]cyclobutyl]-propan-2-ylamino]methyl]oxolane-3,4-dioland]	confirmed hits	did not significantly affect neuron survival				
COC(=O)C1=C(C)NC(C)=C([N+](=O)[O-])C1c1ccccc1C(F)(F)F (stereo not drawn) [Bay K 8644, methyl 2,6-dimethyl-5-nitro-4-[2-(trifluoromethyl)phenyl]-1,4-dihydropyridine-3-carboxylate]	confirmed hits	did not significantly affect neuron survival				
CC(C)N(CCCNC(=O)Nc1ccc(C(C)(C)C)cc1)C[C@H]1O[C@@H](n2ccc3c(N)ncnc32)[C@H](O)[C@@H]1O [EPZ004777, 1-[3-[[(2R,3S,4R,5R)-5-(4-aminopyrrolo[2,3-d]pyrimidin-7-yl)-3,4-dihydroxyoxolan-2-yl]methyl-propan-2-ylamino]propyl]-3-(4-tert-butylphenyl)urea]					modest functional enhancement with an increased synchronous firing rate	robust increased expression
COc1cc2c(NC3CCN(C(C)C)CC3)nc(C3CCCCC3)nc2cc1OCCCN1CCCC1 [UNC0638, 2-cyclohexyl-6-methoxy-N-(1-propan-2-ylpiperidin-4-yl)-7-(3-pyrrolidin-1-ylpropoxy)quinazolin-4-amine]					significant changes	robust increased expression
